From PubChem BioAssay (NCI)
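Five compound concentrations were applied to cells in 96-well plates for 48 hours; endpoints were derived by simple linear interpolation of the resulting dose-response curve. TGI denotes the concentration required for complete inhibition of growth.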

How the values were obtained:
Assay in all cases: NCI-60 cell line screen, 48 h
UACC-257 melanoma = system: UACC-257 melanoma
COLO 205 colon = system: COLO 205 colon
MOLT-4 leukemia = system: MOLT-4 leukemia
SK-OV-3 ovarian = system: SK-OV-3 ovarian
MALME-3M melanoma = system: MALME-3M melanoma
EKVX NSCLC = system: EKVX NSCLC
M14 melanoma = system: M14 melanoma
SF-268 CNS = system: SF-268 CNS
NCI-H522 lung = system: NCI-H522 lung
SK-MEL-2 melanoma = system: SK-MEL-2 melanoma
SK-MEL-28 melanoma = system: SK-MEL-28 melanoma
DU-145 prostate = system: DU-145 prostate
MCF7 breast = system: MCF7 breast
UACC-62 melanoma = system: UACC-62 melanoma
OVCAR-5 ovarian = system: OVCAR-5 ovarian
IGROV1 ovarian = system: IGROV1 ovarian
HL-60(TB) leukemia = system: HL-60(TB) leukemia
MDA-N = system: MDA-N
UO-31 renal = system: UO-31 renal
HOP-62 NSCLC = system: HOP-62 NSCLC
HOP-92 NSCLC = system: HOP-92 NSCLC
SK-MEL-5 melanoma = system: SK-MEL-5 melanoma
SR leukemia = system: SR leukemia
NCI-H23 lung = system: NCI-H23 lung
BT-549 breast = system: BT-549 breast
SNB-19 CNS = system: SNB-19 CNS
SNB-75 CNS = system: SNB-75 CNS
PC-3 prostate = system: PC-3 prostate
HCC-2998 colon = system: HCC-2998 colon
KM12 colon = system: KM12 colon
HCT-15 colon = system: HCT-15 colon
NCI-H460 lung = system: NCI-H460 lung
A549 NSCLC = system: A549 NSCLC
HT29 colon = system: HT29 colon
786-0 renal = system: 786-0 renal
SF-539 CNS = system: SF-539 CNS
NCI-H226 lung = system: NCI-H226 lung
CCRF-CEM leukemia = system: CCRF-CEM leukemia
K-562 leukemia = system: K-562 leukemia
NCI/ADR-RES ovarian = system: NCI/ADR-RES ovarian
MDA-MB-231 breast = system: MDA-MB-231 breast
TK-10 renal = system: TK-10 renal
T-47D breast = system: T-47D breast
MDA-MB-435 = system: MDA-MB-435
RXF 393 renal = system: RXF 393 renal
CAKI-1 renal = system: CAKI-1 renal
ACHN renal = system: ACHN renal
A498 renal = system: A498 renal
SF-295 CNS = system: SF-295 CNS
OVCAR-4 ovarian = system: OVCAR-4 ovarian
HCT-116 colon = system: HCT-116 colon
U251 CNS = system: U251 CNS
HS 578T breast = system: HS 578T breast
LOX IMVI melanoma = system: LOX IMVI melanoma
OVCAR-8 ovarian = system: OVCAR-8 ovarian
SW-620 colon = system: SW-620 colon
SN12C renal = system: SN12C renal
RPMI-8226 leukemia = system: RPMI-8226 leukemia
OVCAR-3 ovarian = system: OVCAR-3 ovarian

CC1(C)[C@H](O)CC[C@]2(C)C3=CC[C@@]4(C)[C@@H]5C[C@](C)(CO)CC[C@]5(C)CC[C@]4(C)C3=CC[C@@H]12
TGI (UACC-257 melanoma): > 100 µM | TGI (COLO 205 colon): > 100 µM | TGI (MOLT-4 leukemia): > 100 µM | TGI (SK-OV-3 ovarian): > 100 µM | TGI (MALME-3M melanoma): > 100 µM | TGI (EKVX NSCLC): > 100 µM | TGI (M14 melanoma): > 100 µM | TGI (SF-268 CNS): > 100 µM | TGI (NCI-H522 lung): > 100 µM | TGI (SK-MEL-2 melanoma): > 100 µM | TGI (SK-MEL-28 melanoma): > 100 µM | TGI (DU-145 prostate): > 100 µM | TGI (MCF7 breast): > 100 µM | TGI (UACC-62 melanoma): > 100 µM | TGI (OVCAR-5 ovarian): > 100 µM | TGI (IGROV1 ovarian): > 100 µM | TGI (HL-60(TB) leukemia): > 100 µM | TGI (MDA-N): > 100 µM | TGI (UO-31 renal): 3.62 µM | TGI (HOP-62 NSCLC): > 100 µM | TGI (HOP-92 NSCLC): > 100 µM | TGI (SK-MEL-5 melanoma): > 100 µM | TGI (SR leukemia): 4.72 µM | TGI (NCI-H23 lung): > 100 µM | TGI (BT-549 breast): > 100 µM

CN1c2ccccc2C2c3c(O)ccc(O)c3C=C([N+](=O)[O-])C21 (stereo not drawn)
TGI (UACC-257 melanoma): 0.516 µM | TGI (COLO 205 colon): 8.55 µM | TGI (SNB-19 CNS): 2.03 µM | TGI (MOLT-4 leukemia): > 27.4 µM | TGI (SK-OV-3 ovarian): 13.5 µM | TGI (SNB-75 CNS): > 24.2 µM | TGI (PC-3 prostate): 4.79 µM | TGI (EKVX NSCLC): 7.63 µM | TGI (HCC-2998 colon): 2.8 µM | TGI (M14 melanoma): 1.44 µM | TGI (SF-268 CNS): 6.54 µM | TGI (KM12 colon): 1.82 µM | TGI (HCT-15 colon): 6.41 µM | TGI (NCI-H522 lung): 0.17 µM | TGI (NCI-H460 lung): 6.02 µM | TGI (A549 NSCLC): 3.57 µM | TGI (SK-MEL-2 melanoma): 7.08 µM | TGI (HT29 colon): 0.568 µM | TGI (786-0 renal): 2.13 µM | TGI (SK-MEL-28 melanoma): 11.3 µM | TGI (SF-539 CNS): 4.45 µM | TGI (MCF7 breast): 0.346 µM | TGI (UACC-62 melanoma): 2.66 µM | TGI (NCI-H226 lung): > 92.9 µM | TGI (CCRF-CEM leukemia): > 100 µM | TGI (OVCAR-5 ovarian): 5.87 µM | TGI (K-562 leukemia): > 100 µM | TGI (NCI/ADR-RES ovarian): > 20 µM | TGI (MDA-MB-231 breast): 7.44 µM | TGI (IGROV1 ovarian): 5.87 µM | TGI (HL-60(TB) leukemia): 3.17 µM | TGI (TK-10 renal): 23.3 µM | TGI (MDA-N): 1.5 µM | TGI (UO-31 renal): 2.1 µM | TGI (HOP-62 NSCLC): 5.96 µM | TGI (HOP-92 NSCLC): 5.84 µM | TGI (SK-MEL-5 melanoma): 1.89 µM | TGI (T-47D breast): > 100 µM | TGI (MDA-MB-435): 0.366 µM | TGI (RXF 393 renal): 15.5 µM | TGI (SR leukemia): > 24.8 µM | TGI (CAKI-1 renal): 5.16 µM | TGI (ACHN renal): 1.97 µM | TGI (A498 renal): 5.47 µM | TGI (SF-295 CNS): 8.29 µM | TGI (OVCAR-4 ovarian): 2.81 µM | TGI (HCT-116 colon): 0.651 µM | TGI (NCI-H23 lung): 5.61 µM | TGI (BT-549 breast): 13.6 µM | TGI (U251 CNS): 4.84 µM

CC(C)(C)SC1=CCC[C@@H](P(=O)(c2ccccc2)c2ccccc2)[C@@H]2CCC[C@@H]12
TGI (UACC-257 melanoma): 31.8 µM | TGI (COLO 205 colon): 34.1 µM | TGI (SNB-19 CNS): 30.9 µM | TGI (MOLT-4 leukemia): 38.1 µM | TGI (SK-OV-3 ovarian): 33.8 µM | TGI (SNB-75 CNS): 26.5 µM | TGI (MALME-3M melanoma): 36.3 µM | TGI (PC-3 prostate): 28.6 µM | TGI (EKVX NSCLC): 33.7 µM | TGI (HCC-2998 colon): 29.9 µM | TGI (M14 melanoma): 29.5 µM | TGI (SF-268 CNS): 35.5 µM | TGI (KM12 colon): 35.5 µM | TGI (HCT-15 colon): 33 µM | TGI (NCI-H522 lung): 31.3 µM | TGI (NCI-H460 lung): 30.8 µM | TGI (A549 NSCLC): 35.2 µM | TGI (SK-MEL-2 melanoma): 31.8 µM | TGI (HT29 colon): 28.3 µM | TGI (786-0 renal): 30.4 µM | TGI (SK-MEL-28 melanoma): 54.6 µM | TGI (DU-145 prostate): 39.8 µM | TGI (HS 578T breast): 47.6 µM | TGI (SF-539 CNS): 36.5 µM | TGI (MCF7 breast): 31.1 µM | TGI (UACC-62 melanoma): 24.9 µM | TGI (LOX IMVI melanoma): 33.5 µM | TGI (NCI-H226 lung): 35.6 µM | TGI (CCRF-CEM leukemia): 60.6 µM | TGI (OVCAR-5 ovarian): 27.1 µM | TGI (K-562 leukemia): 51.6 µM | TGI (NCI/ADR-RES ovarian): 35.1 µM | TGI (IGROV1 ovarian): 36 µM | TGI (HL-60(TB) leukemia): 47.5 µM | TGI (TK-10 renal): 32.3 µM | TGI (MDA-N): 30.3 µM | TGI (UO-31 renal): 30.2 µM | TGI (HOP-62 NSCLC): 31.8 µM | TGI (HOP-92 NSCLC): 28.9 µM | TGI (SK-MEL-5 melanoma): 32.8 µM | TGI (T-47D breast): 33.3 µM | TGI (MDA-MB-435): 33.1 µM | TGI (RXF 393 renal): 29.9 µM | TGI (SR leukemia): 43.6 µM | TGI (CAKI-1 renal): 32.9 µM | TGI (OVCAR-8 ovarian): 39.2 µM | TGI (ACHN renal): 30.6 µM | TGI (A498 renal): 29.4 µM | TGI (SF-295 CNS): 29 µM | TGI (SW-620 colon): 85.3 µM | TGI (OVCAR-4 ovarian): 31.4 µM | TGI (HCT-116 colon): 27.3 µM | TGI (NCI-H23 lung): 33.6 µM | TGI (SN12C renal): 29.3 µM | TGI (BT-549 breast): 32.3 µM | TGI (U251 CNS): 33.3 µM | TGI (RPMI-8226 leukemia): 41.9 µM | TGI (OVCAR-3 ovarian): 32.7 µM
